The values below come from ChEMBL document CHEMBL4334432, “Development of benzochalcone derivatives as selective CYP1B1 inhibitors and anticancer agents” (Medchemcomm, 2019).

SMILES strings stand for the structures.

One experiment concerns the target T1, Cytochrome P450 1A2 (Homo sapiens, UniProt P05177).
T1 sequence (P05177 whole entry): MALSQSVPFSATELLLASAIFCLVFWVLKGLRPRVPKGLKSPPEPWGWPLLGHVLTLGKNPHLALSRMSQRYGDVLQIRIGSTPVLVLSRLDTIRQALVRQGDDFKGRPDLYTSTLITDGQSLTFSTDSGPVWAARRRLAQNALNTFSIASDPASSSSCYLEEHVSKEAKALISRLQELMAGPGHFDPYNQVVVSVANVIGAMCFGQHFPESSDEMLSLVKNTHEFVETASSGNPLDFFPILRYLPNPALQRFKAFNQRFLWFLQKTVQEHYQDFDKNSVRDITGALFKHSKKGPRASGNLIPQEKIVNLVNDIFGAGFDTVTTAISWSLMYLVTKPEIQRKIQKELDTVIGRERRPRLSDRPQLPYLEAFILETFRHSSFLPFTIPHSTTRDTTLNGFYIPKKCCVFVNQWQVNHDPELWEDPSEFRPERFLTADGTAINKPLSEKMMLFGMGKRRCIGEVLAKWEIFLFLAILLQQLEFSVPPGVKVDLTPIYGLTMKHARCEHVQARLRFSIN
In words: Inhibition of recombinant human CYP1A2 expressed in supersomes using 7-ethoxyresorufin as substrate after 50 mins in presence of NADP+ by EROD assay. In kind it is ADME.

Experiment [1] can be described thus: Cytotoxicity against drug-resistant human MDA-MB-435/LCC6MDR1 cells assessed as reduction in cell viability after 48 hrs by MTT assay. In kind it is functional, cell-based. Particulars: MDA-MB-435/LCC6 MDR1, 48 h. In general terms: Tetrazolium assays rely on reduction of a dye to a coloured formazan, in cell work by metabolically active cells.
For experiment [2], the system named is MCF7. In words: Cytotoxicity against drug-resistant […]-induced human MCF7 cells overexpressing CYP1B1 assessed as reduction in cell viability after 48 hrs by MTT assay. Particulars: MCF7, 48 h. In kind it is functional, cell-based.
The subject of experiment [3] is MCF7. In words: cells. Conditions: Homo sapiens, MCF7, 48 h.
Description: Cytotoxicity against human MCF7 cells assessed as reduction in cell viability after 48 hrs by MTT assay
The test system of the next experiment is MDA-MB-231. In words: cells. Particulars: Homo sapiens, MDA-MB-231, 48 h.
Another experiment deals with T2, Cytochrome P450 1A1 (Homo sapiens, UniProt P04798).
T2 sequence (P04798 whole entry): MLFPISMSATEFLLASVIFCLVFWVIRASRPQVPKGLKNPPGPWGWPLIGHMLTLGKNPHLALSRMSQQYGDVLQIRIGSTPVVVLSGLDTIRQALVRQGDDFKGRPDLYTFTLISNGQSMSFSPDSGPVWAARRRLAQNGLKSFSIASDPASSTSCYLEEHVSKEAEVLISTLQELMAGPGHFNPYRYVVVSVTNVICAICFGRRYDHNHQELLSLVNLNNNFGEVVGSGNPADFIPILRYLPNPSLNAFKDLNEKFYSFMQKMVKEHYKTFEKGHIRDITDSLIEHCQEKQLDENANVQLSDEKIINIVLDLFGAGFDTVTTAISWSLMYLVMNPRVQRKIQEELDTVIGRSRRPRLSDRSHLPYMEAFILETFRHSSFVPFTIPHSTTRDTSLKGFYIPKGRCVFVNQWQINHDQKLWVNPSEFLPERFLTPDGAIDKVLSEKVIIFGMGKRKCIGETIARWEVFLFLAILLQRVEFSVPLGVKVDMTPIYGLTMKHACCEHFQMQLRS
The experiment can be described thus: Inhibition of recombinant human CYP1A1 expressed in supersomes using 7-ethoxyresorufin as substrate after 15 mins in presence of NADP+ by EROD assay. It counts as ADME.

Description for MDA-MB-231: Cytotoxicity against human MDA-MB-231 cells assessed as reduction in cell viability after 48 hrs by MTT assay

Broadly, the IC50 is the point on the concentration scale where inhibition reaches its midpoint. With `COc1ccc(OC)c2c(OC)c(/C=C/C(=O)c3ccc4ccccc4c3O)cc(OC)c12`, at Cytochrome P450 1A2, the IC50 is > 1000 nM. For `O=c1[nH]cc(F)c(=O)[nH]1` [FLUOROURACIL], the IC50 was > 100000 nM in experiment [1], > 100000 nM with MCF7 [2], > 100000 nM with MCF7 [3] and 93800 nM with MDA-MB-231. For `O=C(/C=C/c1ccc(F)cc1)c1ccc2ccccc2c1O`, the IC50 on Cytochrome P450 1A2 was > 1000 nM.

Take `O=c1cc(-c2ccccc2)oc2c1ccc1ccccc12` [ALPHA-NAPHTHOFLAVONE]: the IC50 on Cytochrome P450 1A1 is 80.3 nM; in experiment [1], 82300 nM; with MCF7 [2] it was > 100000 nM; in the experiment with MCF7 [3] it was 80700 nM; in the experiment with MDA-MB-231, > 100000 nM.

For `COc1ccc(OC)c2c(O)c(C(=O)/C=C/c3ccccc3)cc(OC)c12`, at Cytochrome P450 1A2, the IC50 was 735 nM. For `O=C(/C=C/c1ccccc1)c1ccc2ccccc2c1`, the IC50 is > 1000 nM at Cytochrome P450 1A2; 19400 nM in experiment [1]; 18200 nM with MCF7 [2]; 24700 nM in the experiment on MCF7 [3]; 34100 nM in the experiment with MDA-MB-231. Take `Nc1nc(-c2ccccc2)cc(-c2ccc3ccccc3c2)n1`: the IC50 on Cytochrome P450 1A2 was > 1000 nM.

Regarding `O=C(/C=C/c1ccc[nH]1)c1ccc2ccccc2c1O`, the IC50 at Cytochrome P450 1A2 was > 1000 nM. With `O=C(/C=C/c1cccc(F)c1)c1ccc2ccccc2c1O`, on Cytochrome P450 1A2, the IC50 is > 1000 nM.

For the compound `O=C(/C=C/c1ccc(Cl)cc1)c1ccc2ccccc2c1O`, the IC50 on Cytochrome P450 1A2 was > 1000 nM. The same measure, in the same setting: to `COc1ccccc1/C=C/C(=O)c1ccc2ccccc2c1O` belongs > 1000 nM; to `O=C(/C=C/c1ccccc1O)c1ccc2ccccc2c1O`, > 1000 nM.

As for `O=C(/C=C/c1cccc(Cl)c1)c1ccc2ccccc2c1O`, the IC50 at Cytochrome P450 1A2 was > 1000 nM.

Turning to `O=C(/C=C/c1ccccc1Cl)c1ccc2ccccc2c1O`, at Cytochrome P450 1A2, the IC50 is > 1000 nM. `O=C(/C=C/c1cccnc1)c1ccc2ccccc2c1O`: the IC50 at Cytochrome P450 1A2 came to 227 nM. The same measure, in the same setting: to `COc1c(C(=O)/C=C/c2ccccc2)ccc2ccccc12` belongs > 1000 nM; to `Nc1c(C(=O)/C=C/c2ccccc2)ccc2ccccc12`, > 1000 nM; to `O=C(/C=C/c1ccccc1F)c1ccc2ccccc2c1O`, > 1000 nM. Same read-out and setting: the value for `O=C(CCc1ccccc1)c1ccc2ccccc2c1O` was > 1000 nM; that for `O=C(/C=C/c1ccncc1)c1ccc2ccccc2c1O` was > 1000 nM; that for `O=C(/C=C/c1ccccc1)c1ccc2ccccc2c1O` was > 1000 nM. As for `O=C(/C=C/c1ccccn1)c1ccc2ccccc2c1O`, at Cytochrome P450 1A2, the half-maximal inhibitory concentration (IC50) is > 1000 nM.
